Data: patent US20040248765A1, “Tumour targeting prodrugs activated by metallo matrixproteinases” (priority 2001, published 2004)
pIC50: −log10 of the molar value. Where a name gives a salt, the structure may show the parent alone. Read-outs that look alike come from different tables or passages of the source. Where a SMILES comes first, the peptide text is derived from it. [ ]: non-standard residue; d: D form. The star is where a group is joined. NH(CH2)3NH(1-anthraquinonyl) = O=C1c2ccccc2C(=O)c2c(NCCCN*)cccc21; Nle = CCCC[C@H](N)C(=O)O; Nva = CCC[C@H](N)C(=O)O

Legend:
[1] = system: MAC15A adenocarcinoma of the colon; test: In vitro cytotoxicity against MAC15A adenocarcinoma of the colon, 96 hours exposure; assay type: cell-based
[2] = Mus musculus, exposure time 96 hours, read-out: IC50
[3] = exposure time 96 hours, read-out: IC50

Compound	melting point [°C]	also measured
O=C(O)C(F)(F)F.O=C1c2ccccc2C(=O)c2c(NCCCNC(=O)[C@H]3CCCN3)cccc21 [Example 9, 1-[3-(D-Prolylamino)propylamino]anthraquinone trifluoroacetate]	177	pIC50 ([1]; Mus musculus, 96 h): 5.46
CCC[C@H](NC(=O)[C@@H](N)CCC)C(=O)NCC(=O)N[C@@H](CC(C)C)C(=O)N1CCC[C@H]1C(=O)NCCCNc1cccc2c1C(=O)c1ccccc1C2=O.O=C(O)C(F)(F)F [Example 45, 1-[3-(L-Norvalyl-L-norvalyl-glycyl-L-leucyl-L-prolylamino)propyl-amino]anthraquinone trifluoroacetate] (H-[Nva][Nva]GLP-{NH(CH2)3NH(1-anthraquinonyl)})	174 to 176	pIC50 [1, 2]: 5.40
CC(C)C[C@H](NC(=O)[C@H](C)NC(=O)[C@H](C)NC(=O)[C@@H](C)N)C(=O)NCC(=O)N[C@@H](CC(C)C)C(=O)N1CCC[C@@H]1C(=O)NCCCNc1cccc2c1C(=O)c1ccccc1C2=O.O=C(O)C(F)(F)F [Example 15, 1-[3-(D-Alanyl-L-alanyl-L-alanyl-L-leucyl-glycyl-L-leucyl-D-prolylamino)propylamino]anthraquinone trifluoroacetate] (H-[dA]AALGL[dP]-{NH(CH2)3NH(1-anthraquinonyl)})	166	pIC50 ([1]; Mus musculus, 96 h): 4.40
NCC(=O)N[C@@H](Cc1ccccc1)C(=O)N1CCC[C@H]1C(=O)NCCCNc1cccc2c1C(=O)c1ccccc1C2=O.O=C(O)C(F)(F)F [Example 73, 1-[3-(Glycyl-L-phenylalanyl-L-prolylamino)propylamino]anthraquinone trifluoroacetate]	129	pIC50 ([1]; Mus musculus, 96 h): 5.60
CC[C@H](C)[C@H](N)C(=O)NCC(=O)N[C@@H](Cc1ccccc1)C(=O)N1CCC[C@H]1C(=O)NCCCNc1cccc2c1C(=O)c1ccccc1C2=O.O=C(O)C(F)(F)F [Example 74, 1-[3-(L-Isoleucyl-glycyl-L-phenylalanyl-L-prolylamino)propylamino]-anthraquinone trifluoroacetate]	122 to 124	pIC50 [1, 2]: 5.60
N[C@@H](Cc1ccccc1)C(=O)N1CCC[C@H]1C(=O)NCCCNc1cccc2c1C(=O)c1ccccc1C2=O.O=C(O)C(F)(F)F [Example 72, 1-[3-(L-Phenylalanyl-L-prolylamino)propylamino]anthraquinone trifluoroacetate]	118 to 120	pIC50 ([1]; Mus musculus, 96 h): 5.52
CC(C)C[C@H](N)C(=O)N1CCC[C@@H]1C(=O)NCCCNc1cccc2c1C(=O)c1ccccc1C2=O [Example 10, 1-[3-(L-Leucyl-D-prolylamino)propylamino]anthraquinone trifluoroacetate]		pIC50 ([1]; Mus musculus, 96 h): 5.15
CC[C@H](C)[C@H](NC(=O)[C@H](Cc1ccccc1)NC(=O)[C@H](CC(C)C)NC(=O)[C@@H](C)N)C(=O)NCC(=O)N[C@@H](Cc1ccccc1)C(=O)N1CCC[C@H]1C(=O)NCCCNc1cccc2c1C(=O)c1ccccc1C2=O.O=C(O)C(F)(F)F [Example 77, 1-[3-(D-Alanyl-L-Leucyl-L-Phenylalanyl-L-isoleucyl-glycyl-L-phenylalanyl-L-prolylamino)propylamino]anthraquinone trifluoroacetate]	142 to 148	pIC50 [1, 2]: 4.62
CCC[C@H](NC(=O)[C@H](C)NC(=O)[C@@H](C)N)C(=O)N[C@@H](CCC)C(=O)NCC(=O)N[C@@H](CC(C)C)C(=O)N1CCC[C@H]1C(=O)NCCCNc1cccc2c1C(=O)c1ccccc1C2=O [Example 47, 1-[3-(D-AlanyI-L-alanyl-L-norvalyl-L-norvalyl-glycyl-L-leucyl-L-prolylamino)propylamino]anthraquinone trifluoroacetate] (H-[dA]A[Nva][Nva]GLP-{NH(CH2)3NH(1-anthraquinonyl)})		pIC50 [1, 3]: 4.66
CCC[C@H](NC(=O)[C@H](C)NC(=O)[C@H](C)N)C(=O)NCC(=O)N[C@@H](CC(C)C)C(=O)N1CCC[C@H]1C(=O)NCCCNc1cccc2c1C(=O)c1ccccc1C2=O.O=C(O)C(F)(F)F (H-AA[Nva]GLP-{NH(CH2)3NH(1-anthraquinonyl)})	197	
CC(C)C[C@H](NC(=O)[C@H](Cc1ccc(O)cc1)NC(=O)[C@H](C)NC(=O)[C@@H](C)N)C(=O)NCC(=O)N[C@@H](CC(C)C)C(=O)N1CCC[C@H]1C(=O)NCCCNc1cccc2c1C(=O)c1ccccc1C2=O.O=C(O)C(F)(F)F	190 to 194	
CC(C)C[C@H](NC(=O)CNC(=O)[C@@H](N)CC(C)C)C(=O)N1CCC[C@@H]1C(=O)NCCCNc1cccc2c1C(=O)c1ccccc1C2=O [Example 12, 1-[3-(L-Leucyl-glycyl-L-leucyl-D-prolylamino)propylamino]-anthraquinone trifluoroacetate] (H-LGL[dP]-{NH(CH2)3NH(1-anthraquinonyl)})		pIC50 ([1]; Mus musculus, 96 h): 4.52
CC[C@H](C)[C@H](NC(=O)[C@H](Cc1ccccc1)NC(=O)[C@@H](N)CC(C)C)C(=O)NCC(=O)N[C@@H](Cc1ccccc1)C(=O)N1CCC[C@H]1C(=O)NCCCNc1cccc2c1C(=O)c1ccccc1C2=O.O=C(O)C(F)(F)F [Example 76, 1-[3-(L-Leucyl-L-phenylalanyl-L-isoleucyl-glycyl-L-phenylalanyl-L-prolylamino)propylamino]anthraquinone trifluoroacetate]	166 to 178	pIC50 [1, 2]: 4.68
CC(C)C[C@H](NC(=O)[C@H](C)N)C(=O)NCC(=O)N[C@@H](CC(C)C)C(=O)N1CCC[C@@H]1C(=O)NCCCNc1cccc2c1C(=O)c1ccccc1C2=O.O=C(O)C(F)(F)F	168	
CC(C)C[C@H](NC(=O)[C@@H](N)Cc1ccccc1)C(=O)NCC(=O)N1CCC[C@@H]1C(=O)NCCCNc1cccc2c1C(=O)c1ccccc1C2=O.O=C(O)C(F)(F)F	170	
CCCC[C@H](NC(=O)[C@H](C)NC(=O)[C@H](C)NC(=O)[C@@H](C)N)C(=O)NCC(=O)N[C@@H](CC(C)C)C(=O)N1CCC[C@H]1C(=O)NCCCNc1cccc2c1C(=O)c1ccccc1C2=O.O=C(O)C(F)(F)F	192	
CCC[C@H](NC(=O)[C@H](C)N)C(=O)N[C@@H](CCC)C(=O)NCC(=O)N[C@@H](CC(C)C)C(=O)N1CCC[C@H]1C(=O)NCCCNc1cccc2c1C(=O)c1ccccc1C2=O [Example 46, 1-3-(L-Alanyl-L-norvalyl-L-norvalyl-glycyl-L-leucyl-L-prolylamino)-propylamino]anthraquinone trifluoroacetate] (H-A[Nva][Nva]GLP-{NH(CH2)3NH(1-anthraquinonyl)})		pIC50 [1, 3]: 5.10
CC(C)C[C@H](NC(=O)CN)C(=O)N[C@@H](C)C(=O)N[C@@H](CC(C)C)C(=O)N1CCC[C@H]1C(=O)NCCCNc1cccc2c1C(=O)c1ccccc1C2=O.O=C(O)C(F)(F)F (H-GLALP-{NH(CH2)3NH(1-anthraquinonyl)})	192 to 194	
CCCC[C@H](NC(=O)[C@H](C)NC(=O)[C@H](C)N)C(=O)NCC(=O)N[C@@H](CC(C)C)C(=O)N1CCC[C@H]1C(=O)NCCCNc1cccc2c1C(=O)c1ccccc1C2=O.O=C(O)C(F)(F)F (H-AA[Nle]GLP-{NH(CH2)3NH(1-anthraquinonyl)})	176	
CC(C)C[C@H](NC(=O)CN)C(=O)N1CCC[C@@H]1C(=O)NCCCNc1cccc2c1C(=O)c1ccccc1C2=O [Example 11, 1-[3-(Glycyl-L-leucyl-D-prolylamino)propylamino]anthraquinone trifluoroacetate]		pIC50 ([1]; Mus musculus, 96 h): 4.66
CCC[C@H](NC(=O)CNC(=O)[C@H](CC(C)C)NC(=O)[C@H](C)NC(=O)[C@H](C)N)C(=O)N1CCC[C@H]1C(=O)NCCCNc1cccc2c1C(=O)c1ccccc1C2=O.O=C(O)C(F)(F)F (H-AALG[Nva]P-{NH(CH2)3NH(1-anthraquinonyl)})	188	
CC[C@H](C)[C@H](NC(=O)[C@@H](N)Cc1ccccc1)C(=O)NCC(=O)N[C@@H](Cc1ccccc1)C(=O)N1CCC[C@H]1C(=O)NCCCNc1cccc2c1C(=O)c1ccccc1C2=O.O=C(O)C(F)(F)F [Example 75, 1-[3-(L-Phenylalanyl-L-isoleucyl-glycyl-L-phenylalanyl-L-prolylamino)-propylamino]anthraquinone trifluoroacetate]	132 to 136	pIC50 [1, 2]: 4.70
CCC[C@H](N)C(=O)N1CCC[C@H]1C(=O)NCCCNc1cccc2c1C(=O)c1ccccc1C2=O.O=C(O)C(F)(F)F	190 to 194	
NCC(=O)N1CCC[C@H]1C(=O)NCCCNc1cccc2c1C(=O)c1ccccc1C2=O.O=C(O)C(F)(F)F	160 to 166	
N[C@@H](Cc1ccccc1)C(=O)N1CCC[C@@H]1C(=O)NCCCNc1cccc2c1C(=O)c1ccccc1C2=O.O=C(O)C(F)(F)F	118 to 120	
CSC[C@H](NC(=O)[C@H](Cc1ccc(O)cc1)NC(=O)[C@H](C)N)C(=O)NCC(=O)N[C@@H](CC(C)C)C(=O)N1CCC[C@H]1C(=O)NCCCNc1cccc2c1C(=O)c1ccccc1C2=O.O=C(O)C(F)(F)F (H-AYC(Me)GLP-{NH(CH2)3NH(1-anthraquinonyl)})	166 to 170	
CC(C)C[C@H](NC(=O)[C@H](C)NC(=O)[C@H](C)N)C(=O)NCC(=O)N[C@@H](CC(C)C)C(=O)N1CCC[C@@H]1C(=O)NCCCNc1cccc2c1C(=O)c1ccccc1C2=O.O=C(O)C(F)(F)F [Example 14, 1-[3-(L-Alanyl-L-alanyl-L-leucyl-glycyl-L-leucyl-D-prolylamino)-propylamino]anthraquinone trifluoroacetate]	132	pIC50 [1, 2]: 4.42
CC(C)C[C@H](NC(=O)CNC(=O)[C@H](C)NC(=O)[C@@H](C)N)C(=O)N[C@@H](Cc1ccccc1)C(=O)N[C@@H](CC(C)C)C(=O)N1CCC[C@H]1C(=O)NCCCNc1cccc2c1C(=O)c1ccccc1C2=O.O=C(O)C(F)(F)F	190 to 194	
CCC[C@H](NC(=O)CNC(=O)[C@H](CC(C)C)NC(=O)[C@H](C)N)C(=O)N1CCC[C@H]1C(=O)NCCCNc1cccc2c1C(=O)c1ccccc1C2=O.O=C(O)C(F)(F)F (H-ALG[Nva]P-{NH(CH2)3NH(1-anthraquinonyl)})	176 to 178	
